Several values for one entry are separate records, joined by “and”; a condition that tells them apart may be missing. Equal values may be shown once.
| melting point | SMILES |
| --- | --- |
| 304 to 306 °C | COc1ccc2c(c1)-c1nn(-c3ccc(C(=O)O)cc3)cc1C2 [Compound 149, 4-(7-Methoxy-4H-indeno[1,2-c]pyrazol-2-yl)-benzoic acid] |
| 214 to 215 °C | O=C(O)c1ccc(-c2ccn(-c3ccc(OC(F)(F)F)cc3)n2)cc1 [Compound 218, 4-[1-(4-Trifluoromethoxy-phenyl)-1H-pyrazol-3-yl]-benzoic acid] |
| 173 to 174 °C | O=C(O)c1cccc(-n2ccc(-c3cccc(F)c3)n2)c1 [Compound 93, 3-[3-(3-Fluoro-phenyl)-pyrazol-1-yl]-benzoic acid] |
| > 350 °C | O=C(O)c1ccc(-n2cc(-c3ccncn3)cn2)cc1 [Compound 118, 4-(4-Pyrimidin-4-yl-pyrazol-1-yl)-benzoic acid] |
| > 300 °C | O=C(O)c1ccc(-n2cnc(-c3cccc(C(=O)O)c3)n2)cc1 [Compound 31, 4-[3-(3-Carboxy-phenyl)-[1,2,4]triazol-1-yl]-benzoic acid] |
| 253 to 254 °C | COc1ccc(-c2cn(-c3ccc(C(=O)O)cc3)nn2)cc1OC [Compound 272, 4-[4-(3,4-Dimethoxy-phenyl)-[1,2,3]triazol-1-yl]-benzoic acid] |
| > 310 °C | O=C(O)c1cccc(-c2ncn(-c3ccc(F)cc3)n2)c1 [Compound 13, 3-[1-(4-Fluoro-phenyl)-1H-[1,2,4]triazol-3-yl]-benzoic acid] |
| 239 to 241 °C | O=C(O)c1ccc(-c2ccn(-c3ccccc3)c2)cc1 [Compound 130, 4-(1-Phenyl-1H-pyrrol-3-yl)-benzoic acid] |
| 298 to 299 °C | Cc1ccc(-c2cnn(-c3ccc(C(=O)O)cc3)c2)cc1 [Compound 51, 4-(4-p-Tolyl-pyrazol-1-yl)-benzoic acid] |
| 249 to 250 °C | O=C(O)c1cccc(-n2cc3c(n2)-c2ccccc2C3)c1 [Compound 138, 3-(4H-Indeno[1,2-c]pyrazol-2-yl)-benzoic acid] |
| 162 to 164 °C | Cc1cccc(-n2ccc(-c3cccc(C(=O)O)c3)n2)c1 [Compound 167, 3-(1-m-Tolyl-1H-pyrazol-3-yl)-benzoic acid] |
| 122 to 123 °C | COc1ccc(-n2cc(-c3cccc(C(=O)O)n3)cn2)cc1 [Compound 53, 6-[1-(4-Methoxy-phenyl)-1H-pyrazol-4-yl]-pyridine-2-carboxylic acid] |
| 268 to 270 °C | COc1ccc(-c2ncn(-c3cccc(C(=O)O)c3)n2)cc1 [Compound 11, 3-[3-(4-Methoxy-phenyl)-[1,2,4]triazol-1-yl]-benzoic acid] |
| 276 to 277 °C | O=C(O)c1ccc(-n2cc(-c3ccc([N+](=O)[O-])cc3)cn2)cc1 [Compound 102, 4-[4-(4-Nitro-phenyl)-pyrazol-1-yl]-benzoic acid] |
| 266 to 268 °C | O=C(O)c1ccc(-c2cnn(-c3ccc(F)cc3)c2)cc1 [Compound 182, 4-[1-(4-Fluoro-phenyl)-1H-pyrazol-4-yl]-benzoic acid] |
| 295 to 298 °C | Cc1nc(-c2cccc(C(=O)O)c2)nn1-c1ccc(Br)cc1 [Compound 33, 3-[1-(4-Bromo-phenyl)-5-methyl-1H-[1,2,4]triazol-3-yl]-benzoic acid] |
| 266 to 268 °C | O=C(O)c1cccc(-c2ncn(-c3cccc(F)c3)n2)c1 [Compound 29, 3-[1-(3-Fluoro-phenyl)-1H-[1,2,4]triazol-3-yl]-benzoic acid] |
| 142 to 144 °C | O=C(O)c1cccc(-c2ccn(-c3cccc(OCc4ccccc4)c3)c2)c1 [Compound 246, 3-[1-(3-Benzyloxy-phenyl)-1H-pyrrol-3-yl]-benzoic acid] |
| 190 to 192 °C | CCc1ccc(-n2ccc(-c3cccc(C(=O)O)c3)c2)cc1 [Compound 125, 3-[1-(4-Ethyl-phenyl)-1H-pyrrol-3-yl]-benzoic acid] |
| 208 to 209 °C | Cc1ccccc1-n1ccc(-c2ccc(C(=O)O)cc2)c1 [Compound 195, 4-(1-o-Tolyl-1H-pyrrol-3-yl)-benzoic acid] |
| 200 to 202 °C | COc1cccc(-c2ccn(-c3ccc(C(=O)O)cc3)n2)c1 [Compound 221, 4-[3-(3-Methoxy-phenyl)-pyrazol-1-yl]-benzoic acid] |
| 227 to 228 °C | O=C(O)c1cccc(-n2cc3c(n2)-c2ccccc2OC3)c1 [Compound 144, 3-(4H-Chromeno[4,3-c]pyrazol-2-yl)-benzoic acid] |
| 205 to 208 °C | CC(C)c1ccc(-c2nn(-c3ccc(C(=O)O)cc3)c(=O)s2)cc1 [Compound 281, 4-[5-(4-isopropylphenyl)-2-oxo-1,3,4-thiadiazol-3(2H)-yl]benzoic acid] |
| 211 to 213 °C | O=C(O)c1ccc(-n2cc(-c3cccc(Oc4ccccc4)c3)cn2)cc1 [Compound 215, 4-[4-(3-Phenoxy-phenyl)-pyrazol-1-yl]-benzoic acid] |
| 220 to 221 °C | CC(C)c1ccc(-c2nn(-c3cccc(C(=O)O)c3)c(=O)s2)cc1 [Compound 284, 3-[5-(4-Isopropyl-phenyl)-2-oxo-[1,3,4]thiadiazol-3-yl]-benzoic acid] |
| 178 to 190 °C and 178 to 179 °C | O=C(O)c1cccc(-c2ccn(-c3cccc(O)c3)n2)c1 [Compound 75, 3-[1-(3-Hydroxy-phenyl)-1H-pyrazol-3-yl]-benzoic acid] |

| melting point | SMILES |
| --- | --- |
| 260 to 261 °C | O=C(O)c1ccc(-n2cc(-c3ccccc3F)cn2)cc1 [Compound 85, 4-[4-(2-Fluoro-phenyl)-pyrazol-1-yl]-benzoic acid] |
| 164 to 166 °C | N#Cc1cccc(-c2ccn(-c3cccc(C(=O)O)c3)n2)c1 [Compound 78, 3-[3-(3-Cyano-phenyl)-pyrazol-1-yl]-benzoic acid] |
| 246 to 248 °C | O=C(O)c1ccc(-c2cnn(-c3ccc(OC(F)(F)F)cc3)c2)cc1 [Compound 134, 4-[1-(4-Trifluoromethoxy-phenyl)-1H-pyrazol-4-yl]-benzoic acid] |
| 291 to 293 °C | O=C(O)c1ccc(-n2cc(-c3ccc(F)cc3F)cn2)cc1 [Compound 104, 4-[4-(2,4-Difluoro-phenyl)-pyrazol-1-yl]-benzoic acid] |
| 272 to 274 °C | O=C(O)c1cccc(-n2cc(-c3cccc(O)c3)cn2)c1 [Compound 207, 3-[4-(3-Hydroxy-phenyl)-pyrazol-1-yl]-benzoic acid] |
| 177 to 180 °C | O=C(O)c1cccc(-c2ccn(-c3ccc4c(c3)OCO4)c2)c1 [Compound 247, 3-(1-Benzo[1,3]dioxol-5-yl-1H-pyrrol-3-yl)-benzoic acid] |
| 198 to 200 °C | O=C(O)c1cccc(-c2ccn(-c3ccccc3Cl)c2)c1 [Compound 198, 3-[1-(2-Chloro-phenyl)-1H-pyrrol-3-yl]-benzoic acid] |
| 267 to 269 °C | O=C(O)c1ccc(-n2cc(-c3ccccc3)cn2)cc1 [Compound 99, 4-(4-Phenyl-pyrazol-1-yl)-benzoic acid] |
| 83 to 84 °C | N#Cc1cccc(-c2ccn(-c3ccc(OC(F)(F)F)cc3)n2)c1 [Compound 61, 3-[1-(4-Trifluoromethoxy-phenyl)-1H-pyrazol-3-yl]-benzonitrile] |
| 251 to 252 °C | Cc1cccc(-c2cnn(-c3ccc(C(=O)O)cc3)c2)c1 [Compound 91, 4-(4-m-Tolyl-pyrazol-1-yl)-benzoic acid] |
| 218 to 220 °C | CC(C)c1ccc(-c2nn(-c3cccc(C(=O)O)c3)c(=O)o2)cc1 [Compound 279] |
| 181 to 182 °C | Cc1cccc(-c2cnn(-c3cccc(C(=O)O)c3)c2)c1 [Compound 90, 3-(4-m-Tolyl-pyrazol-1-yl)-benzoic acid] |
| 202 to 204 °C | O=C(O)c1ccc(-c2ccn(-c3ccccc3F)c2)cc1 [Compound 151, 4-[1-(2-Fluoro-phenyl)-1H-pyrrol-3-yl]-benzoic acid] |
| 235 to 237 °C | O=C(O)c1cccc(-n2cc3c(n2)-c2cccc(OC(F)F)c2CC3)c1 [Compound 183, 3-(6-Difluoromethoxy-4,5-dihydro-benzo[g]indazol-2-yl)-benzoic acid] |
| 225 to 226 °C | O=C(O)c1cccc(-n2cc(-c3ccccc3F)cn2)c1 [Compound 84, 3-[4-(2-Fluoro-phenyl)-pyrazol-1-yl]-benzoic acid] |
| 228 to 230 °C | O=C(O)c1cccc(-n2cc(-c3cccc(F)c3)cn2)c1 [Compound 213, 3-[4-(3-Fluoro-phenyl)-pyrazol-1-yl]-benzoic acid] |
| 300 to 302 °C | O=C(O)c1cccc(-n2cc(-c3ccncc3)cn2)c1 [Compound 115, 3-(4-Pyridin-4-yl-pyrazol-1-yl)-benzoic acid] |
| 209 to 211 °C | Cc1ccc(-n2cc(-c3cccc(C(=O)O)c3)cn2)cc1Cl [Compound 230, 3-[1-(3-Chloro-4-methyl-phenyl)-1H-pyrazol-4-yl]-benzoic acid] |
| 178 to 180 °C | O=C(O)c1cccc(-n2cc(-c3cccc(Cl)c3)cn2)c1 [Compound 210, 3-[4-(3-Chloro-phenyl)-pyrazol-1-yl]-benzoic acid] |
| 277 to 278 °C | COc1cccc2c1Cc1cn(-c3cccc(C(=O)O)c3)nc1-2 [Compound 184, 3-(5-Methoxy-4H-indeno[1,2-c]pyrazol-2-yl)-benzoic acid] |
| 180 to 182 °C | O=C(O)c1cccc(-n2ccc(-c3ccccc3)n2)c1 [Compound 79, 3-(3-Phenyl-pyrazol-1-yl)-benzoic acid] |
| 218 to 220 °C | O=C(O)c1cccc(-c2cnn(-c3ccc(C(F)(F)F)cc3)c2)c1 [Compound 235, 3-[1-(4-Trifluoromethyl-phenyl)-1H-pyrazol-4-yl]-benzoic acid] |
| 261 to 262 °C | O=C(O)c1ccc(-n2cc(-c3ccccc3Br)nn2)cc1 [Compound 270, 4-[4-(2-Bromo-phenyl)-[1,2,3]triazol-1-yl]-benzoic acid] |
| 232 to 233 °C | COc1cccc2c1CCc1cn(-c3cccc(C(=O)O)c3)nc1-2 [Compound 147, 3-(6-Methoxy-4,5-dihydro-benzo[g]indazol-2-yl)-benzoic acid] |
| 225 to 226 °C | O=C(O)c1cccc(-n2cc(-c3ccccc3)cn2)c1 [Compound 98, 3-(4-Phenyl-pyrazol-1-yl)-benzoic acid] |

Source: patent US9051342B2 (priority 2004, dated 2015)
